According to patent US20100267743A1, “3-(PHENOXYPYRROLIDIN-3-YL-METHYL)HETEROARYL, 3-(PHENYLPYRROLIDIN-3-YLMETHOXY)HETEROARYL, AND 3-(HETEROARYLPYRROLIDIN-3-YLMETHOXY)HETEROARYL COMPOUNDS” (priority 2009, published 2010):
Marks after values point to notes of the source that are not given here.

Tests used:
NET = NET (Homo sapiens, UniProt P23975); assay: hNET radioligand binding assay (3H-nisoxetine); set-up: expressed in transfected cells; host or cells: HEK-293; conditions: hNET membranes (HEK-293), 1.0 nM 3H-nisoxetine; for Ki: read-out: NET pKi (converted)
Protocol: (§1) Membrane radioligand binding assays were used to measure inhibition of labeled ligand (^3H-citalopram or ^3H-nisoxetine or ^3H-WIN35428) binding to membranes prepared from cells expressing the respective human recombinant transporter (hSERT or hNET or hDAT) in order to determine the pKi values of test compounds at the transporters.
(§2) Recombinant human embryonic kidney (HEK-293) derived cell lines stably transfected with hSERT or hNET, respectively, were grown in DMEM medium supplemented with 10% dialyzed FBS (for hSERT) or FBS (for hNET), 100 μg/ml penicillin, 100 μg/ml streptomycin, 2 mM L-glutamine and 250 μg/ml of the aminoglycoside antibiotic G418, in a 5% CO2 humidified incubator at 37° C. When cultures reached 80% confluence, the cells were washed thoroughly in PBS (without […] and Mg^2+) and lifted with 5 mM EDTA in PBS. Cells were pelleted by centrifugation, resuspended in lysis buffer (10 mM Tris-HCl, pH7.5 containing 1 mM EDTA), homogenized, pelleted by centrifugation, then resuspended in 50 mM Tris-HCl, pH 7.5 and 10% sucrose at 4° C. Protein concentration of the membrane suspension was determined using a Bio-Rad Bradford Protein Assay kit. Membranes were snap frozen and stored at −80° C. Chinese hamster ovary membranes expressing hDAT (CHO-DAT) were purchased from PerkinElmer and stored at −80° C.
(§3) Binding assays were performed in a 96-well assay plate in a total volume of 200 μl assay buffer (50 mM Tris-HCl, 120 mM NaCl, 5 mM KCl, pH 7.4) with 0.5, 1, and 3 μg membrane protein, for SERT, NET and DAT, respectively.
(§4) Stock solutions (10 mM in DMSO) of test compound were prepared and serial dilutions made using Dilution Buffer (50 mM Tris-HCl, 120 mM NaCl, 5 mM KCl, pH 7.4, 0.1% BSA, 400 μM ascorbic acid).
(§5) Following a 60 minute incubation at 22° C. (or a period sufficient to reach equilibrium), the membranes were harvested by rapid filtration over a 96-well UniFilter GF/B plate, pretreated with 0.3% polyethyleneimine, and washed 6 times with 300 μl wash buffer (50 mM Tris-HCl, 0.9% NaCl, pH 7.5 at 4° C.). Plates were dried overnight at room temperature, ˜45 μl of MicroScint™-20 (Perkin Elmer) added and bound radioactivity quantitated via liquid scintillation spectroscopy. Inhibition curves and saturation isotherms were analyzed using GraphPad Prism Software package (GraphPad Software, Inc., San Diego, Calif.). IC50 values were generated from concentration response curves using the Sigmoidal Dose Response (variable slope) algorithm in Prism GraphPad. Kd and Bmax values for the radioligand were generated from saturation isotherms using the Saturation Binding Global Fit algorithm in Prism GraphPad. pKi (negative decadic logarithm of Ki) values for test compounds were calculated from the best-fit IC50 values, and the Kd value of the radioligand, using the Cheng-Prusoff equation (Cheng & Prusoff (1973) Biochem. Pharmacol. 22(23):3099-3108): Ki=IC50/(1+[L]/Kd), where [L]=concentration radioligand.

SERT = SERT (Homo sapiens, UniProt P31645); assay: hSERT radioligand binding assay (3H-citalopram); set-up: expressed in transfected cells; host or cells: HEK-293; conditions: hSERT membranes (HEK-293), 1.0 nM 3H-citalopram; for Ki: read-out: SERT pKi (converted)
Protocol: as §1, §2, §3, §4, §5

Chain of SERT (P31645 whole entry): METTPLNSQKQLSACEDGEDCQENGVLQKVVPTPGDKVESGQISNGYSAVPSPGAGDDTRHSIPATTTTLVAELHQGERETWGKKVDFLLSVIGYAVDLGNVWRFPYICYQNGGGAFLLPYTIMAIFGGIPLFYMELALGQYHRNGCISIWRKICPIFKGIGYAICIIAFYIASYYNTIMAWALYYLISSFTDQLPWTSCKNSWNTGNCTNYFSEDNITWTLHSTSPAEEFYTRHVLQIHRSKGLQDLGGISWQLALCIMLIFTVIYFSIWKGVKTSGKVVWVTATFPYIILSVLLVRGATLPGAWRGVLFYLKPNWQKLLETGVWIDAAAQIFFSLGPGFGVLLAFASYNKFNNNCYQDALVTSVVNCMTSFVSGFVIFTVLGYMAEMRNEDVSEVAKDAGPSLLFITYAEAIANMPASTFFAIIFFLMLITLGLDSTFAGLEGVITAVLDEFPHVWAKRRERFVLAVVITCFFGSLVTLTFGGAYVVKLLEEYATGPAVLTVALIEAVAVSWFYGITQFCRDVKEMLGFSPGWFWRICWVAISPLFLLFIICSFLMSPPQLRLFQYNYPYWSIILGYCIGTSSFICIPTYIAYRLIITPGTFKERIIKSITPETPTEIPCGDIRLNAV
Chain of NET (P23975 whole entry): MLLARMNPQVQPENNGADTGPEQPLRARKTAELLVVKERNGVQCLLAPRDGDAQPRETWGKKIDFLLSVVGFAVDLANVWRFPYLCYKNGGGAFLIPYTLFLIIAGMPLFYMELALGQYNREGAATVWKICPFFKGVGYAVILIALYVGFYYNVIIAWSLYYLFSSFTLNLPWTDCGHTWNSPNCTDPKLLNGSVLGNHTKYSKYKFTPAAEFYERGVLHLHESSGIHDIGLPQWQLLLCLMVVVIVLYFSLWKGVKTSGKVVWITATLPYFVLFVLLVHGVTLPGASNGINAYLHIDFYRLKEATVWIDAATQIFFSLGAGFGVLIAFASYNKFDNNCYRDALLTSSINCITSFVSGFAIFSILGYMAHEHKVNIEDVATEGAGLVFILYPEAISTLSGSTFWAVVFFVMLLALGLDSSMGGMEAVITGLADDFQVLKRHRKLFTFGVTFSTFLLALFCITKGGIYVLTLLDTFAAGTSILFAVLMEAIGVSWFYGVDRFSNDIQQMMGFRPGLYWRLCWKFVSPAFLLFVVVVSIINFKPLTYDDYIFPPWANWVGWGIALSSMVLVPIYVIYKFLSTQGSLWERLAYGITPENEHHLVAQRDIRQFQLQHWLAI

Row | Ki (NET) | Ki (SERT) | Structure (SMILES) | NET pKi (NET) | SERT pKi (SERT)
1 |  |  | Fc1cc(F)c(OC(c2nccs2)C2CCNC2)c(F)c1.O=C(O)C(F)(F)F (mixture of isomers) [Example 5-5, 2-[((S)-Pyrrolidin-3-yl-(2,4,6-trifluorophenoxy)methyl]thiazole] | ≧7.0 | ≧7.0
2 |  |  | Cc1cc(Cl)c(OC(c2nccs2)C2CCNC2)c(Cl)c1.O=C(O)C(F)(F)F (mixture of isomers) [Example 5-12, 2-[((S)-(2,6-Dichloro-4-methylphenoxy)-pyrrolidin-3-yl-methyl]thiazole] | ≧5.0 | ≧7.0
3 | ≤ 0.1 µM | ≤ 0.1 µM | Cc1cc(Cl)ccc1OC(c1nccs1)[C@H]1CCNC1 (single isomer, unassigned) [Example 4] |  | 
4 | ≤ 0.1 µM | ≤ 0.1 µM | Clc1cc(Cl)c(O[C@@H](c2ncco2)[C@H]2CCNC2)cc1Cl [6-1] |  | 
5 | ≤ 10 µM | ≤ 10 µM | Fc1cc(F)c(O[C@@H](c2ncco2)[C@H]2CCNC2)c(F)c1 [6-2] |  | 
6 |  |  | Fc1c(Cl)ccc(O[C@@H](c2ncco2)[C@H]2CCNC2)c1Cl.O=C(O)C(F)(F)F [6-4] | ≧7.0 | ≧7.0
7 |  |  | Clc1cccc(Cl)c1O[C@@H](c1ncco1)[C@H]1CCNC1.O=C(O)C(F)(F)F [6-8] | ≧7.0 | ≧7.0
8 |  |  | Fc1cc(F)c(Cl)c(O[C@@H](c2ncco2)[C@H]2CCNC2)c1Cl.O=C(O)C(F)(F)F [6-9] | ≧7.0 | ≧5.0
9 | ≤ 10 µM | ≤ 0.1 µM | Fc1cc(F)c(Cl)c(O[C@H](c2ncco2)[C@H]2CCNC2)c1Cl [6-10] |  | 
10 |  |  | Cc1cc(Cl)c(O[C@@H](c2ncco2)[C@H]2CCNC2)c(Cl)c1.O=C(O)C(F)(F)F [6-12] | ≧5.0 | ≧7.0
11 |  |  | Fc1cc(Cl)cc(F)c1OC(c1ncco1)C1CCNC1 (stereo not drawn) [6-13] | ≧7.0 | ≧7.0
12 |  |  | Cc1cccc(C)c1O[C@@H](c1ncco1)[C@H]1CCNC1.O=C(O)C(F)(F)F [6-14] | ≧7.0 | ≧7.0
13 |  |  | Cc1cc(Cl)cc(C)c1O[C@@H](c1ncco1)[C@H]1CCNC1.O=C(O)C(F)(F)F [6-15] | ≧5.0 | ≧7.0
14 |  |  | Clc1ccc(OC(c2ncco2)C2CCNC2)c(Cc2ccccc2)c1 (stereo not drawn) [6-16] | ≧7.0 | ≧7.0
15 | ≤ 0.1 µM | ≤ 10 µM | FC(F)(F)c1ccccc1O[C@@H](c1ncco1)[C@H]1CCNC1 [6-17] |  | 
16 |  |  | FC(F)(F)c1cc(Cl)ccc1O[C@@H](c1ncco1)[C@H]1CCNC1.O=C(O)C(F)(F)F [6-18] | ≧7.0 | ≧7.0
17 |  |  | Clc1ccccc1O[C@@H](c1ncco1)[C@H]1CCNC1 [6-19] | ≧7.0 | ≧5.0
18 | ≤ 10 µM | ≤ 10 µM | Fc1ccc(F)c(O[C@H](c2ncco2)[C@H]2CCNC2)c1Cl [6-21] |  | 
19 |  |  | Fc1ccc(O[C@@H](c2ncco2)[C@H]2CCNC2)c(Cl)c1.O=C(O)C(F)(F)F [6-22] | ≧7.0 | ≧5.0
20 |  |  | Cc1cc(Cl)c(O[C@@H](c2ncco2)[C@H]2CCNC2)cc1F.O=C(O)C(F)(F)F [6-24] | ≧7.0 | ≧7.0
21 |  |  | Clc1cc(-c2ccccc2)ccc1O[C@@H](c1ncco1)[C@H]1CCNC1.O=C(O)C(F)(F)F [6-25] | ≧7.0 | ≧5.0
22 |  |  | Cc1cccc(Cl)c1O[C@@H](c1ncco1)[C@H]1CCNC1 [6-26] | ≧7.0 | ≧7.0
23 |  |  | CC(=O)c1c(O[C@@H](c2ncco2)[C@H]2CCNC2)ccc(Cl)c1Cl.O=C(O)C(F)(F)F [6-27] | ~5.0* | ≧7.0
24 |  |  | CC(=O)c1cc(F)cc(F)c1O[C@@H](c1ncco1)[C@H]1CCNC1.O=C(O)C(F)(F)F [6-28] | ≧7.0 | ≧5.0
25 |  |  | COC(=O)c1cc(Cl)ccc1O[C@@H](c1ncco1)[C@H]1CCNC1.O=C(O)C(F)(F)F [6-29] | ≧7.0 | ≧7.0
26 |  |  | CCc1cc(F)ccc1O[C@@H](c1ncco1)[C@H]1CCNC1.O=C(O)C(F)(F)F [6-30] | ≧7.0 | ≧7.0

Row | Ki (NET) | Ki (SERT) | Structure (SMILES) | NET pKi (NET) | SERT pKi (SERT)
27 |  |  | Fc1cc(Cl)ccc1O[C@@H](c1ncco1)[C@H]1CCNC1.O=C(O)C(F)(F)F [6-31] | ≧7.0 | ≧7.0
28 |  |  | CC(C)c1ccccc1O[C@@H](c1ncco1)[C@H]1CCNC1.O=C(O)C(F)(F)F [6-32] | ≧7.0 | ≧5.0
29 | ≤ 0.1 µM | ≤ 10 µM | Cc1ccccc1O[C@@H](c1ncco1)[C@H]1CCNC1 [6-33] |  | 
30 |  |  | Cc1cc(Cl)ccc1O[C@@H](c1ncco1)[C@H]1CCNC1.O=C(O)C(F)(F)F [6-34] | ≧7.0 | ≧7.0
31 | ≤ 10 µM | ≤ 0.1 µM | Cc1cc(Cl)ccc1O[C@H](c1ncco1)[C@H]1CCNC1 [6-35] |  | 
32 |  |  | O=C(O)C(F)(F)F.c1ccc(COc2ccccc2O[C@@H](c2ncco2)[C@H]2CCNC2)cc1 [6-36] | ≧7.0 | ≧5.0
33 | ≤ 0.1 µM | ≤ 10 µM | FC(F)(F)Oc1ccccc1O[C@@H](c1ncco1)[C@H]1CCNC1 [6-37] |  | 
34 |  |  | CCOc1ccccc1O[C@@H](c1ncco1)[C@H]1CCNC1.O=C(O)C(F)(F)F [6-38] | ≧7.0 | ≧5.0
35 |  |  | COc1cc(Cl)ccc1O[C@@H](c1ncco1)[C@H]1CCNC1 [6-39] | ≧7.0 | ≧7.0
36 |  |  | COc1cc(Cl)c(F)cc1O[C@@H](c1ncco1)[C@H]1CCNC1.O=C(O)C(F)(F)F [6-40] | ≧7.0 | ≧7.0
37 |  |  | COc1cccc(F)c1O[C@@H](c1ncco1)[C@H]1CCNC1.O=C(O)C(F)(F)F [6-41] | ≧7.0 | ≧5.0
38 |  |  | O=C(O)C(F)(F)F.c1ccc(-c2ccccc2O[C@@H](c2ncco2)[C@H]2CCNC2)cc1 [6-42] | ≧7.0 | ≧5.0
39 | ≤ 0.1 µM | ≤ 0.1 µM | Clc1cc(Cl)cc(O[C@H](c2ncco2)[C@H]2CCNC2)c1 [6-44] |  | 
40 |  |  | Clc1cccc(O[C@@H](c2ncco2)[C@H]2CCNC2)c1.O=C(O)C(F)(F)F [6-45] | ≧7.0 | ≧5.0
41 | ≤ 10 µM | ≤ 10 µM | Cc1cccc(O[C@@H](c2ncco2)[C@H]2CCNC2)c1 [6-46] |  | 
42 |  |  | Clc1ccc(O[C@@H](c2ncco2)[C@H]2CCNC2)cc1.O=C(O)C(F)(F)F [6-47] | ≧7.0 | ≧7.0
43 | ≤ 0.1 µM | ≤ 0.1 µM | Cc1ccc(O[C@@H](c2ncco2)[C@H]2CCNC2)cc1 [6-48] |  | 
44 |  |  | Clc1cccc(O[C@@H](c2ncco2)[C@H]2CCNC2)c1Cl.O=C(O)C(F)(F)F [6-49] | ≧7.0 | ≧7.0
45 |  |  | Cc1c(Cl)cccc1O[C@@H](c1ncco1)[C@H]1CCNC1.O=C(O)C(F)(F)F [6-50] | ≧7.0 | ≧7.0
46 |  |  | COc1ccccc1O[C@@H](c1ncco1)[C@H]1CCNC1.O=C(O)C(F)(F)F [6-52] | ≧7.0 | ≧5.0
47 |  |  | CCc1cc(F)cc(F)c1O[C@@H](c1ncco1)[C@H]1CCNC1 [6-53] | ≧7.0 | ≧7.0
48 |  |  | Fc1cc(F)c(Cl)c(O[C@@H](c2cnccn2)[C@H]2CCNC2)c1Cl.O=C(O)C(F)(F)F [10-1] | ≧7.0 | ≧7.0
49 | ≤ 10 µM | ≤ 10 µM | Fc1cc(F)c(Cl)c(O[C@H](c2cnccn2)[C@H]2CCNC2)c1Cl [10-2] |  | 
50 |  |  | Fc1ccc(F)c(O[C@@H](c2cnccn2)[C@H]2CCNC2)c1Cl.O=C(O)C(F)(F)F [10-3] | ≧7.0 | ≧5.0
51 | ≤ 10 µM | ≤ 0.1 µM | Fc1ccc(F)c(O[C@H](c2cnccn2)[C@H]2CCNC2)c1Cl [10-4] |  | 
